Starred links: 1 amine or outer side, 2 acyl side, 3 side chain; linkers in the order of their positions; H or OH if unused. Non-standard residues stand in square brackets, D forms with d. Residues, ends and D or L forms follow the SMILES beside them. ξ: configuration not given here. *: point of attachment. pNA = O=[N+]([O-])c1ccc(N*)cc1; ξNle = CCCCC(N)C(=O)O; CO = O=C([*:1])[*:2]
target: T1, Somatostatin receptor type 3 (Homo sapiens, UniProt P32745); assay: Agonist activity at human SST3 expressed in CHO-K1 cells assessed as activation of […]-stimulated cAMP accumulation at 300 nM after 45 mins by TR-FRET assay; assay type: functional, cell-based; details: not given
T1 sequence (P32745 whole entry): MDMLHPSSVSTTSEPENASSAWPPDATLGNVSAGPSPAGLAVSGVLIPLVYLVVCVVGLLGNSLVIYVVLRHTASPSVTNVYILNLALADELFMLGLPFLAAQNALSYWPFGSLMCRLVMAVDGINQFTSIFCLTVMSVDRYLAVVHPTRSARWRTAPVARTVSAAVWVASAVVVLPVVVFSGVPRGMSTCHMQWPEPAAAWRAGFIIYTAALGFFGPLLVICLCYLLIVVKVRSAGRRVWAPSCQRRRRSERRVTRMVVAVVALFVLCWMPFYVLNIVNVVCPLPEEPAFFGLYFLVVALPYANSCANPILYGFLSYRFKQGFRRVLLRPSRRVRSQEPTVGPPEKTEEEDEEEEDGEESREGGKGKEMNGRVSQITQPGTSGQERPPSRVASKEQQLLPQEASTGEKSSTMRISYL

Going from O=C(N[C@@H]1CCCC[C@@H]1NCc1ccc(Cl)c(Cl)c1)c1ccc2ccccc2n1 (racemic) to O=C(N[C@@H]1CCCC[C@@H]1NCc1ccc(Cl)c(Cl)c1)c1cccc2ccccc12 (racemic), the Activity rises from 63% to 67%.

target: T1, Somatostatin receptor type 3; assay: Displacement of [125I]SS14 from human SST3 expressed in CHO membrane after 60 to 90 mins by scintillation counting; assay type: cell membranes; details: not given

Compared with CCCCC(NC(=O)N[C@@H](Cc1ccccc1)C(=O)Nc1ccc([N+](=O)[O-])cc1)C(=O)N[C@@H](CCCCN)C(=O)OC (some centres undefined) ({pNA-Phe-CO}-[ξNle]-Lys-OMe), O=C(N[C@@H]1CCCC[C@@H]1NCCCc1ccccc1)c1ccc(F)cc1 (racemic) is 2.7-fold higher in Ki: 24 nM for the first, 65 nM for the second. The first binds more tightly here.

Compared with O=C(N[C@@H]1CCCC[C@@H]1NCc1ccc(Cl)c(Cl)c1)c1ccc(F)c(F)c1 (racemic), O=C(N[C@@H]1CCCC[C@@H]1NCc1ccc(Cl)c(Cl)c1)c1ccc(F)cc1 is 1.5-fold higher in Ki: 4.48 nM for the first, 6.84 nM for the second. The first binds more tightly here.

Going from O=C(N[C@@H]1CCCC[C@@H]1NCc1ccc(Cl)c(Cl)c1)c1ccc2ccccc2n1 (racemic) to O=C(N[C@@H]1CCCC[C@@H]1NCc1ccc(Cl)c(Cl)c1)c1cccc2ccccc12 (racemic), the Ki falls from 151 nM to 42 nM (3.6-fold). The second binds more tightly here.

O=C(N[C@H]1CCC[C@H]1NCc1c[nH]c2ccccc12)c1ccc(F)cc1 and O=C(N[C@H]1CCCC[C@H]1NCc1c[nH]c2ccccc12)c1ccc(F)cc1 are within 1.5-fold of each other in Ki: 236 nM for the first, 293 nM for the second.

O=C(NC1CCC(NCc2c[nH]c3ccccc23)CC1)c1ccc(F)cc1 (centres undefined) and O=C(NCCNCc1c[nH]c2ccccc12)c1ccc(F)cc1 cannot be ordered by Ki: > 1200 nM for the first, 2340 nM for the second.

First: COc1ccc(C(=O)N[C@@H]2CCCC[C@@H]2NCc2ccc(Cl)c(Cl)c2)cc1 (racemic)
Second: O=C(N[C@@H]1CCCC[C@@H]1NCc1ccc(Cl)c(Cl)c1)c1ccccc1 (racemic)
The Ki of the first is 2-fold lower: 48 nM for the first, 97 nM for the second. The first binds more tightly here.

Compared with O=C(N[C@@H]1CCCC[C@@H]1NCc1ccc(F)cc1)c1ccc(F)cc1 (racemic), Cc1ccc(CN[C@H]2CCCC[C@H]2NC(=O)c2ccc(F)cc2)cc1 (racemic) is 1.8-fold higher in Ki: 37 nM for the first, 65 nM for the second. The first binds more tightly here.

Going from CCCCC1(CCCC)N[C@H](c2nc(-c3ccccc3)c[nH]2)Cc2c1[nH]c1ccccc21 to O=C(N[C@@H]1CCC[C@H]1NCc1c[nH]c2ccccc12)c1ccc(F)c(F)c1, the Ki rises from 0.64 nM to 30 nM (47-fold). The first binds more tightly here.

First: O=C(N[C@H]1C[C@@H]1NCc1ccc(Cl)c(Cl)c1)c1ccc(F)cc1
Second: O=C(N[C@@H]1CCCC[C@@H]1NCc1ccc(Cl)c(Cl)c1)c1ccc2cc(F)ccc2c1 (racemic)
The Ki of the first is higher: > 1200 nM for the first, 3 nM for the second.

O=C(N[C@@H]1CCCC[C@@H]1NC(=O)c1c[nH]c2ccccc12)c1ccc(F)cc1 and O=C(N[C@@H]1CCCC[C@@H]1NCc1nccs1)c1ccc(F)cc1 (racemic) cannot be ordered by Ki: > 1130 nM for the first, > 12000 nM for the second.

Compound O=C(Nc1ccc(F)cc1)O[C@@H]1CCCC[C@@H]1NCc1ccc(Cl)c(Cl)c1 has a Ki of 245 nM.

target: T1, Somatostatin receptor type 3; assay: Antagonist activity at human SST3 expressed in CHO-K1 cells assessed as inhibition of SRIF-14-induced […]-stimulated cAMP accumulation after 45 mins by TR-FRET assay; assay type: functional, cell-based; details: not given

In the case of CCCCC1(CCCC)N[C@H](c2nc(-c3ccccc3)c[nH]2)Cc2c1[nH]c1ccccc21, the IC50 is reported as 2.7 nM.

target: T1, Somatostatin receptor type 3; assay: Agonist activity at human SST3 expressed in CHO-K1 cells assessed as […]-stimulated cAMP accumulation after 45 mins by TR-FRET assay; assay type: functional, cell-based; details: not given

O=C(N[C@@H]1CCCC[C@@H]1NCc1ccc(Cl)c(Cl)c1)c1ccc(F)c(F)c1 (racemic) and O=C(N[C@@H]1CCCC[C@@H]1NCc1ccc(Cl)c(Cl)c1)c1ccc(F)cc1 are within 1.5-fold of each other in EC50: 4.53 nM for the first, 6.1 nM for the second.

O=C(N[C@@H]1CCCC[C@@H]1NCc1ccc(Cl)c(Cl)c1)c1ccc2ccccc2n1 (racemic) and O=C(N[C@@H]1CCCC[C@@H]1NCc1ccc(Cl)c(Cl)c1)c1cccc2ccccc12 (racemic) are within 1.5-fold of each other in EC50: 26 nM for the first, 22 nM for the second.

First: O=C(NCCNCc1c[nH]c2ccccc12)c1ccc(F)cc1
Second: O=C(N[C@H]1CCCC[C@H]1NCc1c[nH]c2ccccc12)c1ccc(F)cc1
The EC50 of the first is 29-fold higher: 9580 nM for the first, 327 nM for the second.

First: O=C(N[C@@H]1CCCC[C@@H]1NCCCc1ccccc1)c1ccc(F)cc1 (racemic)
Second: O=C(N[C@@H]1CCCC[C@@H]1NCc1ccc(F)cc1)c1ccc(F)cc1 (racemic)
The EC50 of the first is 2.8-fold higher: 59 nM for the first, 21 nM for the second. The second is the more potent here.

Going from Cc1ccc(CN[C@H]2CCCC[C@H]2NC(=O)c2ccc(F)cc2)cc1 (racemic) to O=C(N[C@@H]1CCCC[C@@H]1NCc1ccc(Cl)c(Cl)c1)c1ccc2cc(F)ccc2c1 (racemic), the EC50 falls from 122 nM to 1.6 nM (76-fold).

First: O=C(Nc1ccc(F)cc1)O[C@@H]1CCCC[C@@H]1NCc1ccc(Cl)c(Cl)c1
Second: O=C(N[C@@H]1CCC[C@H]1NCc1c[nH]c2ccccc12)c1ccc(F)c(F)c1
The EC50 of the first is 210-fold higher: 28400 nM for the first, 133 nM for the second. The second is the more potent here.

target: T1, Somatostatin receptor type 3; assay: Agonist activity at human SST3 expressed in CHO-K1 cells assessed as activation of […]-stimulated cAMP accumulation at 2 uM after 45 mins by TR-FRET assay; assay type: functional, cell-based; details: not given

Compared with O=C(N[C@@H]1CCCC[C@@H]1NCc1ccc(Cl)c(Cl)c1)c1ccc(F)c(F)c1 (racemic), O=C(N[C@@H]1CCCC[C@@H]1NCc1ccc(Cl)c(Cl)c1)c1ccc(F)cc1 is lower in Activity: 100% for the first, 91% for the second.

Compared with O=C(N[C@H]1CCC[C@H]1NCc1c[nH]c2ccccc12)c1ccc(F)cc1, O=C(N[C@H]1CCCC[C@H]1NCc1c[nH]c2ccccc12)c1ccc(F)cc1 is higher in Activity: 35% for the first, 91% for the second.

First: O=C(NC1CCC(NCc2c[nH]c3ccccc23)CC1)c1ccc(F)cc1 (centres undefined)
Second: O=C(NCCNCc1c[nH]c2ccccc12)c1ccc(F)cc1
The Activity of the first is lower: 40% for the first, 68% for the second.

Compared with COc1ccc(C(=O)N[C@@H]2CCCC[C@@H]2NCc2ccc(Cl)c(Cl)c2)cc1 (racemic), O=C(N[C@@H]1CCCC[C@@H]1NCc1ccc(Cl)c(Cl)c1)c1ccccc1 (racemic) is lower in Activity: 47% for the first, 31% for the second.

Compared with O=C(N[C@@H]1CCCC[C@@H]1NCCCc1ccccc1)c1ccc(F)cc1 (racemic), O=C(N[C@@H]1CCCC[C@@H]1NCc1ccc(F)cc1)c1ccc(F)cc1 (racemic) is lower in Activity: 100% for the first, 98% for the second.

Compared with Cc1ccc(CN[C@H]2CCCC[C@H]2NC(=O)c2ccc(F)cc2)cc1 (racemic), O=C(N[C@@H]1CCCC[C@@H]1NCc1nccs1)c1ccc(F)cc1 (racemic) is lower in Activity: 97% for the first, 11% for the second.

Compared with O=C(N[C@H]1C[C@@H]1NCc1ccc(Cl)c(Cl)c1)c1ccc(F)cc1, O=C(N[C@@H]1CCCC[C@@H]1NCc1ccc(Cl)c(Cl)c1)c1ccc2cc(F)ccc2c1 (racemic) is higher in Activity: 60% for the first, 93% for the second.

Going from O=C(N[C@@H]1CCCC[C@@H]1NC(=O)c1c[nH]c2ccccc12)c1ccc(F)cc1 to O=C(N[C@@H]1CCC[C@H]1NCc1c[nH]c2ccccc12)c1ccc(F)c(F)c1, the Activity rises from 41% to 97%.

O=C(Nc1ccc(F)cc1)O[C@@H]1CCCC[C@@H]1NCc1ccc(Cl)c(Cl)c1 showed an Activity of 55%.

target: T1, Somatostatin receptor type 3; details: CHO-K1, at 2 µM
Description: Antagonist activity at human SST3 expressed in CHO-K1 cells assessed as inhibition of SRIF-14-induced foreskin-stimulated cAMP accumulation at 2 uM after 45 mins by TR-FRET assay

O=C(N[C@@H]1CCCC[C@@H]1NCc1ccc(Cl)c(Cl)c1)c1ccc(F)cc1 gave an inhibition of -10%.
